Target: T1, NTCP (Homo sapiens, UniProt Q14973)
T1 sequence (Q14973 1-349): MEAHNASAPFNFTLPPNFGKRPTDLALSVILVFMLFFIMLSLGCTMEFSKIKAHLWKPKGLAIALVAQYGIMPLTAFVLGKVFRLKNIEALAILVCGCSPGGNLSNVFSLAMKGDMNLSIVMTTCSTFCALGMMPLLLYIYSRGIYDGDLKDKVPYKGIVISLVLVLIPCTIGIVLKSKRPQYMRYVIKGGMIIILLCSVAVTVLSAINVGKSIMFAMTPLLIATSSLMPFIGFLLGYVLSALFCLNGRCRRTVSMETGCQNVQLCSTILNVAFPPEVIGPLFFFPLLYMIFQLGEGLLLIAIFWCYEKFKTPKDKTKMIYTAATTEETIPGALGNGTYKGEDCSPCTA
Assay: [3H]-TCA uptake assay (NTCP inhibition)
Assay type: cell-based
Procedure: [^3H]-TCA uptake assay. PTH and HepG2-NTCP cells were cultured in PMM for 24 hours to induce NTCP expression. After treated by DMSO or test compounds for 2 hours, the cells were then incubated with 1 μM [^3H]-taurocholate acid dissolved in Na^+ Ringer's buffer (the concentration of Na was 145 mM) for 15 minutes at 37° C. Subsequently, the cells were washed once in phosphate-buffered saline (PBS) and lysed in 50 μL 1% TritonX-100 in H2O for 5 minutes at room temperature. The lysate were totally transferred into a liquid scintillation 96 well plate and mixed with 200 μL liquid scintillation cocktail (Ultima Gold XR, PerkinElmer). Liquid scintillation counting was performed on a PerkinElmer 1450 LSC liquid scintillation counter.

[1] = given as a range, marked * (asterisk not explained)
[2] = IC50, given as a range, marked * (asterisk not explained)
[3] = given as a range, assay not given

SMILES	IC50 [1] [nM]	IC50 [2] [nM]	further results
CCC1NC(=O)C(C2OC(Oc3cccc(OCc4ccc5ccc(=O)oc5c4)c3)CC2C)N(C)C(=O)C(C(C)C)N(C)C(=O)C(CC(C)C)N(C)C(=O)C(CC(C)C)N(C)C(=O)C(C)NC(=O)C(C)NC(=O)C(CC(C)C)N(C)C(=O)C(C(C)C)NC(=O)C(CC(C)C)N(C)C(=O)CN(C)C1=O (centres unmarked) [Compound 58A-o]	1000 to 100000		
CCC1NC(=O)C(C2OC(Oc3ccc(OS(C)(=O)=O)cc3)CC2C)N(C)C(=O)C(C(C)C)N(C)C(=O)C(CC(C)C)N(C)C(=O)C(CC(C)C)N(C)C(=O)C(C)NC(=O)C(C)NC(=O)C(CC(C)C)N(C)C(=O)C(C(C)C)NC(=O)C(CC(C)C)N(C)C(=O)CN(C)C1=O (centres unmarked) [Compound 5A-o]		1000 to 100000	
CCC1NC(=O)C(C2OC(OCc3c(Cl)cccc3Cl)CC2C)N(C)C(=O)C(C(C)C)N(C)C(=O)C(CC(C)C)N(C)C(=O)C(CC(C)C)N(C)C(=O)C(C)NC(=O)C(C)NC(=O)C(CC(C)C)N(C)C(=O)C(C(C)C)NC(=O)C(CC(C)C)N(C)C(=O)CN(C)C1=O (single isomer, unassigned) [Compound 90A]			IC50 [3]: 1 to 1000 nM
CCC1NC(=O)C(C2OC(Oc3ccc(Cl)c(OCCOC)c3)CC2C)N(C)C(=O)C(C(C)C)N(C)C(=O)C(CC(C)C)N(C)C(=O)C(CC(C)C)N(C)C(=O)C(C)NC(=O)C(C)NC(=O)C(CC(C)C)N(C)C(=O)C(C(C)C)NC(=O)C(CC(C)C)N(C)C(=O)CN(C)C1=O (centres unmarked) [Compound 45A-o]		1000 to 100000	
CCC1NC(=O)C(C2OC(Sc3cc(Cl)cc(OCC4CCN(C)CC4)c3)CC2C)N(C)C(=O)C(C(C)C)N(C)C(=O)C(CC(C)C)N(C)C(=O)C(CC(C)C)N(C)C(=O)C(C)NC(=O)C(C)NC(=O)C(CC(C)C)N(C)C(=O)C(C(C)C)NC(=O)C(CC(C)C)N(C)C(=O)CN(C)C1=O (centres unmarked) [Compound 71]	1000 to 100000		
CCCCc1ccc(OC2CC(C)C(C3C(=O)NC(CC)C(=O)N(C)CC(=O)N(C)C(CC(C)C)C(=O)NC(C(C)C)C(=O)N(C)C(CC(C)C)C(=O)NC(C)C(=O)NC(C)C(=O)N(C)C(CC(C)C)C(=O)N(C)C(CC(C)C)C(=O)N(C)C(C(C)C)C(=O)N3C)O2)cc1 (centres unmarked) [Compound 8A-o]		1000 to 100000	
CCC1NC(=O)C(C2OC(Sc3cccc(OCc4ccncc4)c3)CC2C)N(C)C(=O)C(C(C)C)N(C)C(=O)C(CC(C)C)N(C)C(=O)C(CC(C)C)N(C)C(=O)C(C)NC(=O)C(C)NC(=O)C(CC(C)C)N(C)C(=O)C(C(C)C)NC(=O)C(CC(C)C)N(C)C(=O)CN(C)C1=O [Compound 54A, [2-((2,3R)-3-methyl-5-(3-(pyridin-4-ylmethoxy)phenylthio)tetrahydrofuran-2-yl)-2-(methylamino)acetic acid]^1-cyclosporin A]			IC50 [3]: 1 to 1000 nM
CCC1NC(=O)C(C2OC(Sc3cccc(OCc4cccs4)c3)CC2C)N(C)C(=O)C(C(C)C)N(C)C(=O)C(CC(C)C)N(C)C(=O)C(CC(C)C)N(C)C(=O)C(C)NC(=O)C(C)NC(=O)C(CC(C)C)N(C)C(=O)C(C(C)C)NC(=O)C(CC(C)C)N(C)C(=O)CN(C)C1=O (centres unmarked) [Compound 69]		1000 to 100000	
CCC1NC(=O)C(C2OC(Oc3cccc(OCc4ccn(C)c(=O)c4)c3)CC2C)N(C)C(=O)C(C(C)C)N(C)C(=O)C(CC(C)C)N(C)C(=O)C(CC(C)C)N(C)C(=O)C(C)NC(=O)C(C)NC(=O)C(CC(C)C)N(C)C(=O)C(C(C)C)NC(=O)C(CC(C)C)N(C)C(=O)CN(C)C1=O (centres unmarked) [Compound 16A-o]	1000 to 100000		
CCC1NC(=O)C(C2OC(Oc3cccc(OCc4ccc(F)cc4C)c3)CC2C)N(C)C(=O)C(C(C)C)N(C)C(=O)C(CC(C)C)N(C)C(=O)C(CC(C)C)N(C)C(=O)C(C)NC(=O)C(C)NC(=O)C(CC(C)C)N(C)C(=O)C(C(C)C)NC(=O)C(CC(C)C)N(C)C(=O)CN(C)C1=O (centres unmarked) [Compound 24A-o]	1000 to 100000		
CCC1NC(=O)C(C2OC(OCc3ccc(Cl)c(Cl)c3)CC2C)N(C)C(=O)C(C(C)C)N(C)C(=O)C(CC(C)C)N(C)C(=O)C(CC(C)C)N(C)C(=O)C(C)NC(=O)C(C)NC(=O)C(CC(C)C)N(C)C(=O)C(C(C)C)NC(=O)C(CC(C)C)N(C)C(=O)CN(C)C1=O [Compound 94B, [2-((2R,3R)-5-(3,4-dichlorobenzyloxy)-3-methyltetrahydrofuran-2-yl)-2-(methylamino)acetic acid]^1-cyclosporin A]			IC50 [3]: 1 to 1000 nM
